Source: patent US9428815B2, “HIV-1 reverse transcriptase codon deletion and its use in the management and treatment of HIV infections” (Emory University, priority 2007, dated 2016)

Key:
[1] = target: T1, Wild type Reverse Transcriptase (Human immunodeficiency virus type 1 group M subtype B, UniProt P12497); assay: Heteropolymeric DNA polymerase RT assay in the absence of ATP, wild type RT; format: biochemical, HIV-1; details: for IC50: Wild type RT; for Fold-incr: Wild type RT (reference)
T1 construct: The level of resistance to NRTI-TP by the S68del mutants compared to wild type RT
Procedure: The level of resistance to NRTI-TP by the S68del mutants compared to wild type RT was determined as IC50 values of RT activity in the absence of ATP (Table 6). […] The RT activity was linear during the assay time within the substrate range used, and thus steady state kinetics were assumed.

[2] = target: T2, RT from virally-derived S68del (Human immunodeficiency virus type 1 group M subtype B, UniProt P03367, DEL667-667); assay: Heteropolymeric-DNA colorimetric RT assay with 3.2 mM ATP, particle-derived S68del RT; format: biochemical, HIV-1; details: for fold increase in resistance: virally-derived S68del RT, relative to HIVLAI, enzymatic assay
T2 construct: The resistance of RT derived from S68del and M184V particles; made in house; host or cells: crude virus pellet; the virus was passaged in human PBM cells
Text: (§1) The principle and performance of the non-radioactive RT assay has been described (Lennerstrand et al., Antimicrob. Agents Chemother. 2007; 51:2078-2084). Separate kit components, such as covalently-linked DNA microtiter plates and tracer solution (alkaline phosphate (AP)-conjugated anti-BrdU antibody) were obtained from Cavidi Tech, Uppsala, Sweden. In brief, the 96-well microtiter plate used consisted of an 18 base heteropolymeric DNA primer covalently bound to the well. In the RT assay, the DNA primer is bound to a 50-base DNA template at 50 ng/well (190 nM) with a 5′-A12-3′ tail with a 5′-(GTCA)5-3′ repeat (Integrated DNA Technologies, USA). The RT assay reaction mixture (total volume 150 μl/well) contained: Hepes 50 mM, pH 7.3; MgCl2 10 mM; Triton X-100 0.5%; bovine serum albumin 0.1 mg/ml; dATP, dGTP, dCTP and 5-bromo-2′-deoxyuridine-5′-triphosphate (BrdUTP) at 1.0 μM each (where BrdUTP replaces TTP) (Sigma). To obtain ATP primer unblocking reaction in the assay, the ATP (Amersham/GE Health Care) was set to physiological concentration (3.2 mM). However, the ATP was only used in the assay with virus pellets as sample, not merely for primer unblocking reaction but to protect degradation of substrate in the crude sample. Furthermore, the dNTP level including BrdUTP was increased from 1 μM to 4 μM for the assay with the virus pellet samples. Subsequently, in the assay with recombinant purified RT enzyme, no ATP besides 1 μM dNTP was used.
(§2) The reaction was started with the addition of RT either as recombinant or crude virus pellet form in a similar activity range as previous published (Lennerstrand et al., Antimicrob. Agents Chemother. 2007; 51:2078-2084). The RT reaction mixture was incubated at 33° C. for 180 min and terminated by NaOH (to dehybridize the template) and water washing of the plates.

[3] = system: Recombinant S68del Reverse Transcriptase; assay: Heteropolymeric DNA polymerase RT assay in the absence of ATP, recombinant S68del RT; format: biochemical, HIV-1; details: Recombinant S68del RT IC50 divided by wild type IC50
Procedure: (§3) Nucleic acids were separated by gel electrophoresis in a TAE gel and extracted from bands using the Qiagen gel extraction kit. The 4.2 kb band from pNL4-3 containing the HIV-RT encoding sequences was ligated into the linearized pCR2.1, making the construct MC002. Site directed mutagenesis was performed on the MC002 plasmid. Primers used had the S68 codon AGT deleted, thus introducing the S68 deletion into the pNL4-3 RT background.
(§4) To ligate the RT of pNL4-3 comprising the deletion at S68 codon 68 into protein expression vector […] (Invitrogen), MC002 was amplified using forward primer 5′-[…]-3′ (SEQ ID NO: 10) and reverse primer 5′-[…] […]-3′ (SEQ ID NO: 11). The PCR product and pQE60 were digested with Bgl II and Nco I. The digested products were separated by gel electrophoresis nucleic acids in excised gel bands extracted using the Qiagen gel extraction kit. The amplified PCR product comprising the RT of pNL4-3 was ligated into the linearized pQE60. The ligation mix was transformed into chemically competent bacteria (Alpha-select). Plasmid DNA from selected transformants was extracted using a mini-prep kit (Qiagen). Plasmid DNA was sequenced in both directions to confirm the ligation.
as §1, §2

[4] = target: T3, Recombinant S68del Reverse Transcriptase (Human immunodeficiency virus type 1 group M subtype B, UniProt P12497, DEL655-655); assay: as above; format: biochemical, HIV-1
T3 construct: The amplified PCR product comprising the RT of pNL4-3 was ligated into the linearized pQE60; inferred from the pQE60 vector and the in-frame BglII site of the reverse primer without a stop codon) (C); made in house; host or cells: bacteria
Procedure: as §3, §4, §1, §2

[5] = system: HIVs68Δ-23 (S68del virus isolated at week 23); assay: 3H-TTP RT incorporation assay, drug susceptibility of in vitro-selected S68del virus in human PBM cells; format: cell-based, HIV-1; details: for EC50 / EC90: HIVs68Δ-23 in human PBM cells, averages of 2-6 independent experiments; for FI EC50 (fold increase in 50% effective concentration) / FI EC90 (fold increase in 90% effective concentration): HIVs68Δ-23 relative to HIVLAI; for resistance of S68del (in words): S68del mutant HIV, summary statement; for HIVs68Δ-23 susceptibility (in words): NNRTI / PI
Procedure: Peripheral blood mononuclear (PBM) cells were separated by ficoll-hypaque (Histopaque 1077: Sigma) density gradient centrifugation from Buffy coats obtained from the American Red Cross (Atlanta, Ga.). Buffy coats were derived from healthy seronegative donors. Cells were activated with 3 μg/ml phytohaemagglutinin A (Sigma-Aldrich, St. Louis, Mo.) in 500 ml of RPMI-1640 (Mediatech Inc., Herndon, Va.) containing 100 ml heat-inactivated fetal bovine serum (Hyclone), 83.3 IU/ml penicillin, 83.3 μg/ml streptomycin, 1.6 mM L-glutamine (Mediatech Inc., Herndon, Va.), for 2-3 days prior to use.
Drug resistance of the S68del virus isolated at week 23 (HIVs68Δ-23) was measured with the 3H-TTP RT incorporation assay in human PBM cells (Schinazi, et al., Antimicrob. Agents Chemother. 1990; 34:1061-1067; Stuyver et al., Antimicrob. Agents Chemother. 2002; 46:3854-60). HIVs68Δ-23 was population sequenced to ensure the dominant population was the deletion at codon 68. […] The susceptibility of the S68del virus to several nucleoside reverse transcriptase inhibitors (NRTI), a non-nucleoside reverse transcriptase inhibitor (NNRTI) and a protease inhibitor (PI) was tested. Fold increases were measured relative to HIVLAI (Table 4, FIGS. 2 and 3). Data are the averages of 2-6 independent experiments.

[6] = system: pNL4-3; assay: Quantitative HIV-1 real-time PCR assay in human PBM cells, pNL4-3 virus; format: cell-based; details: Human immunodeficiency virus 1, PBMC, pNL4-3 in human PBM cells
Text: The real-time PCR assay for quantifying virus levels in PBM cells serves as a more sensitive method for measuring drug resistance of S68del HIV-1 than other standard methods. SK38 Primer: ATAATCCACCTATCCCAGTAGGAGAAAT (SEQ ID NO: 1) and SK39 Primer: TTTGGTCCTTGTCTTATGTCCAGAATGC (SEQ ID NO: 2) were used in the real-time PCR assay. The presence of amplified product was detected with the SK19 probe: ATCCTGGGATTAAATAAAATAGTAAGAATGTATAG (SEQ ID NO: 3). […] Four concentrations were tested in duplicate for each data point.

[7] = system: S68delpNL4-3; assay: microbe, parasite or virus in culture; format: cell-based, HIV-1
Text: An intermediate vector with a 4 kb fragment of pNL4-3 ([…]) containing the RT coding region was cloned into the pCR2.1 vector (Invitrogen). […] The HIV-1 fragment from the intermediate vector was digested with Spe I/Age I and subcloned into the full-length pNL4-3 vector. The S68del pNL4-3-based infectious clone was then transfected into HEK293T cells and supernatant was collected after 4 days. The supernatant obtained from HEK293T was used to infect fresh PBM cells, after which the HIV-1 virus pool was passaged to establish an infective pool.
Four concentrations were tested in duplicate for each data point.

[8] = Human immunodeficiency virus 1, PBMC
[9] = Human immunodeficiency virus 1, PBMC, S68del in pNL4-3, human PBM cells, real-time PCR

Nc1nc(=O)n(C2CSC(COP(=O)(O)OP(=O)(O)OP(=O)(O)O)O2)cc1F (single isomer, unassigned; (-)) [(−)FTC-TP]
IC50 [1]: 3.5 ± 0.3 µM | Fold-incr [1]: 1.0 | fold increase in resistance [2]: 10 fold | Fold-incr [3]: 7.7 | IC50 [4]: 27 ± 2 µM

Nc1nc2c(ncn2C2COC(CO)O2)c(=O)[nH]1 (single isomer, unassigned; (-)) [DXG, (−)-9-(beta-D-dioxolane)guanine]
EC50 [5]: 1.6 µM | EC90 [5]: 5.1 µM | FI EC50 (fold increase in 50% effective concentration) [5]: 6.2 | FI EC90 (fold increase in 90% effective concentration) [5]: 3.7

Nc1ccn([C@@H]2CS[C@H](CO)O2)c(=O)n1 [3TC, (−)-cis-2-hydroxymethyl-5-(cytosin-1-yl)-1,3-oxathiolane]
EC50 [5, 8]: 0.88 µM | EC90 [5, 8]: 3.3 µM

Cc1cn([C@H]2C[C@H](N=[N+]=[N-])[C@@H](CO)O2)c(=O)[nH]c1=O [AZT, 3′-azido-3′-deoxythymidine]
EC50 [6]: 0.13 µM | EC90 [6]: 0.33 µM | EC50 [5, 8]: 0.0038 µM | EC90 [5, 8]: 0.014 µM | resistance of S68del (in words) [5]: does not show increased resistance

Cc1cn(C2CC(N=[N+]=[N-])C(COP(=O)(O)OP(=O)(O)OP(=O)(O)O)O2)c(=O)[nH]c1=O (stereo not drawn) [AZT-TP]
IC50 [1]: 0.27 ± 0.02 µM | Fold-incr [1]: 1.0 | fold increase in resistance [2]: 2.5 fold | Fold-incr [3]: 2.6 | IC50 [4]: 0.7 ± 0.1 µM

Nc1nc(NC2CC2)c2ncn([C@H]3C=C[C@@H](CO)C3)c2n1.O=C(O)CCC(=O)O [Abacavir, (1S,4R)-4-[2-amino-6-(cyclopropyl-amino)-9H-purin-9-yl]-2-cyclopentene-1-methanol succinate]
EC50 [5, 8]: 3.9 µM | EC90 [5, 8]: 11.3 µM

Cc1cn([C@H]2C=C[C@@H](CO)O2)c(=O)[nH]c1=O [D4T, 2′,3′-dideoxy-2′,3′-didehydrothymidine]
EC50 [5, 8]: 0.41 µM | EC90 [5, 8]: 1.5 µM | resistance of S68del (in words) [5]: does not show increased resistance

Nc1nc(N)c2ncn([C@H]3CO[C@@H](CO)O3)c2n1 [DAPD, (−)-beta-D-2,6-diaminopurine dioxolane]
FI EC50 (fold increase in 50% effective concentration) [5]: 38.2 | FI EC90 (fold increase in 90% effective concentration) [5]: 32.4 | EC50 [5, 8]: 7.9 µM | EC90 [5, 8]: 34.5 µM

Nc1ccn([C@H]2CC[C@@H](CO)O2)c(=O)n1 [DDC, 2′,3′-dideoxycytidine]
EC50 [5, 8]: 0.22 µM | EC90 [5, 8]: 0.93 µM | resistance of S68del (in words) [5]: does not show increased resistance

OC[C@@H]1CC[C@H](n2cnc3c(O)ncnc32)O1 [DDI, 2′,3′-dideoxyinosine]
EC50 [5, 8]: 0.63 µM | EC90 [5, 8]: 4.5 µM | resistance of S68del (in words) [5]: does not show increased resistance

Nc1nc(=O)n([C@H]2C=C[C@@H](CO)O2)cc1F [DFC, β-D-2′,3′-didehydro-2′,3′-dideoxy-5-fluorocytidine]
EC50 [6]: 0.21 µM | EC90 [6]: 2.3 µM | resistance of S68del RT (in words) ([2]; particle-derived RT, 3.2 mM ATP, FIG. 5): increased resistance | EC50 [5, 8]: 1.1 µM | EC90 [5, 8]: 3.4 µM | EC50 [7, 9]: 3.1 µM | EC90 [7, 9]: 8.5 µM | FI50, Fold Increase for S68del in 50% effective concentration ([7]; S68del in pNL4-3 versus pNL4-3): 14.7 | FI90, Fold Increase for S68del in 90% effective concentration ([7]; S68del in pNL4-3 versus pNL4-3): 3.7 | resistance of S68delpNL4-3 (in words) ([7]; real-time PCR, human PBM cells): increased resistance

Cc1cccc(C)c1OCC(=O)N[C@@H](Cc1ccccc1)[C@@H](O)C[C@H](Cc1ccccc1)NC(=O)[C@H](C(C)C)N1CCCNC1=O [Lopinavir]
EC50 [5, 8]: 0.006 µM | EC90 [5, 8]: 0.019 µM | HIVs68Δ-23 susceptibility (in words) [5]: not significantly changed

O=C1Nc2ccc(Cl)cc2[C@@](C#CC2CC2)(C(F)(F)F)O1 [Sustiva, (S)-6-chloro-4-cyclopropylethynyl-4-trifluoromethyl-1,4-dihydro-2H-3,1-b-enzoxazin-2-one]
EC50 [5, 8]: 0.00039 µM | EC90 [5, 8]: 0.0035 µM | HIVs68Δ-23 susceptibility (in words) [5]: not significantly changed

CC(C)OC(=O)OCOP(=O)(CO[C@H](C)Cn1cnc2c(N)ncnc21)OCOC(=O)OC(C)C.O=C(O)/C=C/C(=O)O [TDF, 9-[(R)-2-[[bis[[(isopropoxycarbonyl)oxy]methoxy]phosphinyl]methoxy]propyl]adenine fumarate]
EC50 [5, 8]: 0.43 µM | EC90 [5, 8]: 1.6 µM
